# Source: patent US20240318134A1, “IN VITRO GENERATION OF ORGANIZED 3D CELL STRUCTURES INCLUDING HEAD-TRUNK EMBRYO-LIKE STRUCTURES, USING EPIGENETIC REMODELING FACTORS-MICROFLUIDIC PLATFORM SUITABLE FOR THEIR GENERATION” (INSTITUT PASTEUR, priority 2021, published 2024)
# What was measured:
# [1] = tested on: Nanog; assay: Nanog expression at D8 after a round of hypoSUMOylation followed by 5-azacytidine treatment; assay type: cell-based, mouse; conditions: 0.1 μM for 5 days after the first wave of hypoSUMOylation
# [2] = tested on: global level of SUMOylation in mouse ESCs; assay: Immunoblots of SUMO1 and SUMO2/3 conjugates in treated ESCs; assay type: cell-based; conditions: D3 and D10, after first and second 48 h treatment; restored at D8 after withdrawal
# Method: Cells were collected and directly lysed in Laemmli buffer (Bio-Rad #161-0747). Proteins were quantified using Pierce 660 nm Protein Assay (ThermoFisher Scientific #22662) according to manufacturer's instructions. Equal amounts of proteins were loaded on gels and good equilibration of the different samples was assessed by Ponceau staining after membrane transfer. Antibodies against SUMO1 (1:1000, Abcam #ab32058), Actin (1:4000, Sigma #A1978), SUMO2/3 (1:1000, Abcam #ab81371), Gapdh (1:1000, Cell Signaling #2118), Dnmt1 (1:1000, Abcam #ab13537), Dnmt3a (1:1000, Abcam #ab2850), Dnmt3b (1:1000, Abcam #ab2851), Tet2 (1:1000, Cell Signaling #36449S), Histone H3 (1:5000, Abcam #ab24834) were used according to standard protocols and suppliers' recommendations.
# [3] = tested on: mouse ESCs (ES R1 cells); assay: Generating adherent spheroids from mouse ESCs by two 48 h rounds of SUMO E1 inhibitor followed by medium switch; assay type: cell-based; conditions: two rounds of 48 h treatment in serum+Lif, then switch to N2B27+Lif; ML-792 2.5 μM, TAK-981 0.1 μM
# Method: • Using ML-792 as hypoSUMOylation agent (SUMO E1 enzyme inhibitor): ESCs (ES R1 cells-129X1×129S1—ATCC) were dissociated with Trypsin-EDTA and plated (2.5 million cells in 100 mm dish) in serum+Lif medium supplemented with 2.5 μM ML-792 (Takeda Pharmaceuticals International Co.). Medium was replaced the next day to refresh treatment. After 48 h of treatment, plates were rinsed twice with PBS then cells were allowed to recover in serum+Lif. 5 days after the end of the first round, cells were similarly counted and plated for a 2nd round of ML-792. After 48 h of treatment, plates were rinsed twice with PBS then cells were allowed to recover in N2B27+Lif medium. […] By contrast the following specific parameters are taken into consideration with TAK-981:
# On Day 1: first round. 500 000 ES R1 cells were plated per well well of a gelatin-coated 6-well plate in 2 ml of serum+Lif medium, supplemented with 0.1 μM of TAK-981. On Day 2, medium was replaced (aspirated) to refresh treatment (2 mL of Serum+Lif medium, supplemented with 0.1 μM of TAK-981 were added). After 48 h of treatment, on Day 3, the medium was aspirated and wells were rinsed twice with PBS then cells were allowed to recover in 2 ml of added serum+Lif. 6 days after the end of the first round, cells were similarly counted and plated for a 2nd round of TAK-981 (for example starting on Day 9 from the start of first round). […]
# [4] = tested on: Dnmt3a; assay: Dnmt3a gene expression upon ML-792 treatment (siSall4 experiment); assay type: cell-based, mouse; conditions: ML-792 treatment for 48 h; induction reduced by Sall4 knockdown
# Method: (§1) cDNA was generated with a High-Capacity cDNA Reverse Transcription Kit (Applied Biosystems #4368814) from 500 ng to […] of total RNA purified by Trizol extraction. Quantitative real-time PCR analysis was performed with SYBR Green PCR master mix (Applied Biosystems #4309155) and the primer sets indicated in Supplementary Table 7 using cDNA or genomic DNA (local ChIP). Quantitative real-time PCR analysis was performed on a CFX96 Touch Real-Time PCR Detection System (Bio-Rad) or a QuantStudio 6 Flex Real-Time PCR System (Applied Biosystems).
# [5] = tested on: whole genome methylated CG fraction; assay: Genome-wide DNA methylation profiling (Methyl-seq) during the hypoSUMOylation protocol; assay type: cell-based, mouse; conditions: D1 to D10 of the hypoSUMOylation protocol
# Method: DNA was extracted and purified from 2 million cells for each condition with the Quick-DNA Midiprep Plus Kit (Zymo Research D4075) following manufacturer's instructions. DNA was quantified with a NanoDrop ND-1000 (ThermoFisher Scientific). The NEBNext Enzymatic Methyl-seq Kit (New England Biolabs #E7120S) was used to prepare libraries for detection of 5-mC and 5-hmC. 200 ng of DNA from each sample were sheared to 275 bp fragments with an E220 Focused-ultrasonicator (Covaris) with the following settings: Duty Factor, 10%—Peak Incident Power, 175 W—Cycles per burst, 200—Duration, 100 sec. Fragment size was validated by a 4200 TapeStation System (Agilent Technologies). The NEBNext Enzymatic Methyl-seq Kit workflow was then followed, using the sodium hydroxide option for the denaturation step. The size distribution and concentration of the libraries was determined by TapeStation. The libraries were sequenced on an Illumina HiSeq4000 sequencer as paired-end 100 base reads following Illumina's instructions. […]
# Methyl-seq data were processed with the Bismark pipeline^62 using bowtie2 aligner^64 with the default parameters. Biological triplicates were merged and CG sites with at least 5 reads were kept for downstream analyses. Methylated and unmethylated CG sites were counted within predetermined windows (bin or interval) and a binomial test was used to compare different timepoints or regions. […]
# [6] = tested on: mouse ESC-derived spheroids; assay: Marker expression and cell types of spheroids prepared with SUMO E1 inhibitor; assay type: cell-based; conditions: spheroids prepared with TAK-981; same as with ML-792
# Method: On Day 1: first round. 500 000 ES R1 cells were plated per well well of a gelatin-coated 6-well plate in 2 ml of serum+Lif medium, supplemented with 0.1 μM of TAK-981. On Day 2, medium was replaced (aspirated) to refresh treatment (2 mL of Serum+Lif medium, supplemented with 0.1 μM of TAK-981 were added). After 48 h of treatment, on Day 3, the medium was aspirated and wells were rinsed twice with PBS then cells were allowed to recover in 2 ml of added serum+Lif. 6 days after the end of the first round, cells were similarly counted and plated for a 2nd round of TAK-981 (for example starting on Day 9 from the start of first round). On Day 9, 500 000 ES R1 cells were seeded per well on a gelatin-coated 6-well plate in 2 mL of Serum+Lif medium, supplemented with 0.1 μM of TAK-981 On day 10, the medium was aspirated and 2 ml of serum+Lif medium were added, supplemented with 0.1 μM of TAK-981 After 48 h of treatment (on Day 11), the medium was aspirated and wells were rinsed twice with PBS then cells were allowed to recover in 2 ml of N2B27+Lif medium that were added. Culture was carried out in N2B27+Lif medium.
# as §1
compound,measurement,setting,value
Nc1ncn([C@@H]2O[C@H](CO)[C@@H](O)[C@H]2O)c(=O)n1 [5-azacytidine],Nanog expression at D8,[1],able to maintain a high level of Nanog
NS(=O)(=O)OC[C@H]1C[C@@H](Nc2ncncc2C(=O)c2ccn(Cc3cccc(Br)c3)n2)C[C@@H]1O [ML-792],"level of SUMO conjugates (SUMO1, SUMO2/3 immunoblot)",[2],drop of SUMO conjugates at day 3 (D3) and D10
same,formation of spheroid structures,[3],yielded large spheroid structures on adherent plates
same,Dnmt3a expression,[4],induction of Dnmt3a
same,whole genome methylated CG fraction,[5],gradual increase of the methylated CG fraction from D1 to D10
Cc1sc(C(=O)c2cncnc2NC2C[C@H](COS(N)(=O)=O)[C@@H](C)C2)cc1[C@@H]1NCCc2ccc(Cl)cc21 (stereo partly shown) [TAK-981],emergence of EPI-L cell type,[6],"Emergence of an EPI-L cell type expressing Pou3f1, Fgt5, Wnt3"
same,emergence of ESC-L cell type,[6],Emergence of an ESC-L cell type expressing Dppa3
same,emergence of XEN-L cell type,[6],"Emergence of a XEN-L cell type expressing Sox17, Gata4, Snail"
same,pluripotency marker expression in spheroids,[6],"Decrease of pluripotency markers Nanog, Essrb"
same,formation of spheroid structures,[3],cells form three-dimensional adherent spheroids
